The text below walks through data of US10004761B2, “Malodor neutralizing composition” (priority 2016, dated 2018).

Data set [1] deals with hyaluronidase Type IV-S, from bovine testes (Hyase). The experiment in a line: Dische's assay (Method II) of HA degradation by Hyase with inhibitors. In kind it is biochemical. Particulars: for % HA degraded: 20 μL inhibitor stock incubated 2 h with 20 μL Hyase, then HA 200 μL; for % HA degraded / % HA intact (precipitated): room temperature 24 h; for % of inhibition of HA degradation: derived from Table 1; for % HA intact (precipitated): represents % of Hyase inhibition, 20 μL inhibitor, 20 μL Hyase, HA 200 μL. On the procedure:
Method II (Dische's assay; detection of uronic acid residues): Assays were performed by following the procedures described in Dische Z. [J. Biol. Chem., 1947, 167, p. 189-198] and Dische and Rothschild [Anal Biochem., 1967, 21(1), p. 125-30]. In these assays, molecules containing the uronic acid residues found in the precipitate formed upon CPC additions, are re-solubilized and products formed by -sulfuric acid hydrolysis of these fragments are detected by a spectrophotometric assay employing carbazole chromagen reagent. In addition, small residues degraded off the HA chains that have not precipitated with the addition of CPC, can be detected by the carbazole assay performed on the solution, so as to detect all of the uronic acid content.
Evaluation of HA degradation by this method was generally performed as follows:
20 μL of a NAC stock solution, and 20 μL of the stock solutions of the other inhibitors were used in the assay.
200 μL of the HA stock solution were placed in each tube, for achieving a 1 mg HA per tube.
Twenty (20) μL of hyase and 20 μL of NAC were combined and incubated for 2 hours. Then 200 μL of HA (1 mg) were added to each tube and the mixture was incubated at room temperature for 24 hours. Thereafter, the tubes were heated for 2 minutes in boiling water bath and 8 mL of doubled distilled water were added to the tubes as preparation for the Dische's assay.
As per Dische's Assay, 100 μL of 3N NaCl and 0.5 mL of 10% CPC (cetylpyridinium chloride) were thereafter added to each tube and the mixture was incubated at 37° C. until flocculation-turbidity (resulting from precipitation of HA+CPC) could be observed. The mixture was centrifuged for 10 minutes at 10,000 g at room temperature, and the supernatant was thereafter separated from the obtained pellet.
The pellet was dissolved in 1 ml of CaCl2, and the obtained solution was incubated at 37° C. until complete dissolution of the pellet is obtained. A 2:1 v/v ethanol/ether mixture (8 ml) was thereafter added, and the mixture was intensively stirred (by vortex) and kept at −20° C. overnight. The obtained pellet was collected following a centrifugation for 10 minutes at 10,000 g. Then, distilled water (1 mL) was added to solubilize the pellet, followed by addition of 0.2 ml Carbazole 1%. The mixture was stirred thoroughly, and concentrated sulfuric acid (6 mL) was thereafter added.
The samples were transferred into tight closed tubes, placed for 10 minutes in a boiling water bath, and was thereafter cooled in ice until it reached room temperature.
The pink-violet color developed by the chromogen was measured using a spectrophotometer at 527 nm.
Ditch assay, as described hereinabove (Method II) was performed while using the following Hyase inhibitors:
The experiment was run at room temperature (23° C.). Hyase and Inhibitors were incubated first for 2 hours prior to the addition of HA. Blank tubes included no substrate (HA) and Control tubes included no enzyme, no inhibitor and HA (200 μL). Tubes 5 and 6 contained HA and Hyase with no inhibitor. Standard Solutions with no enzyme and no inhibitor and HA 50 μL and 10 μL were also tested, for calibration. % HA cleaved denotes the weight percent of HA that was degraded. % HA residue denotes the weight percent of non-degraded HA, and represents the % of Hyase inhibition.

A short description of data set [2]: HA gelation consistency (Method III) with inhibitors, no Hyase. The data set is classed as physicochemical. Conditions: for Consistency: Table 8: HA 1% 2cc + 20 μL inhibitor stock. On the procedure:
Method III (Viscosity of HA): HA at low concentrations (e.g., 1%) in aqueous solution forms a viscous colloidal hydrogel solution, which yields semi-solid gel particles at room temperature and a solid gel at 4° C.
HA degradation was evaluated using Method III, as described hereinabove.
HA Gelation in the presence of Hyase Inhibitors, without Hyase was studied while using the following Stock solutions:
To each tube containing 2 mL of 1% HA one of the following inhibitors: SCG, Tranilast, and Glutathione (100 μL of each), and NAC (50 μL) was added. […] No Hyase was present.
Using the same protocols as above, HA degradation was tested following incubation of HA (2 ml of a 1% Stock solution) and a Hyase inhibitor (20 μL of a stock solution as described hereinabove), at 37° C., in the presence and absence of Hyase.

The nature of data set [3]: TMA malodor neutralization by myrac aldehyde, evaluated by smelling. On the procedure: The experimental system for following the neutralization of an exemplary malodorous compound trimethylamine (TMA) by an exemplary malodor neutralizing agent aldehyde myrac aldehyde, was based on assaying the CHO functional group using the Park-Johnson method [Park, J. T. and Johnson, M. J., J. Biol. Chem., 1949, 181, p. 149]. TMA levels were analyzed using Siemens Multistix 10 SG reagent strips.
Determination of the concentration of myrac aldehyde needed to neutralize TMA malodor was evaluated by smelling 2 ml samples of an aqueous solution containing 2 mM TMA (4 micromole of TMA in 2 ml of water). […]

Structures are written as SMILES. Some results are limits rather than exact numbers.

Take `O=C(O)c1cc(=O)c2c(OCC(O)COc3cccc4oc(C(=O)O)cc(=O)c34)cccc2o1` [Cromoglycate, sodium Cromoglycate]: in data set [1], the “% HA degraded” value came to 96.7%, the “% of inhibition of HA degradation” value worked out at 3.3% and the “% HA intact (precipitated)” value stood at 3.3%. Also, the Consistency result in data set [2] (at 4° C.) was “Solid (for a solid the results were in the range of 80-100 Pa S and higher)”. In data set [2] (at 37° C.), the Consistency entry is recorded as “Semisolid (for a semi-solid in the range of 50-70 Pa S)”.

Regarding `N[C@@H](CCC(=O)N[C@@H](CS)C(=O)NCC(=O)O)C(=O)O` [Glutathione, Reduced Glutathione], in data set [1], the “% HA degraded” value is given as 82%, the “% of inhibition of HA degradation” value was 18% and the “% HA intact (precipitated)” value is recorded as 18%. Further, the HA gel consistency result in data set [2] (2 mL 1% HA + inhibitor stock (100 μL; NAC 50 μL), 37° C. 24 hours) was “viscous liquid”. In data set [2] (at 4° C.), the Consistency result was “Solid (for a solid the results were in the range of 80-100 Pa S and higher)”. In addition, the Consistency result in data set [2] (at 37° C.) is reported as “Viscous liquid (for a viscous liquid in the range of 1-10 Pa S)”.

As to `CC(C)=CCCC1=CCC(C=O)CC1` (stereo not shown) [myrac aldehyde, 4-(4-methylpent-3-enyl)cyclohex-3-ene-1-carbaldehyde], in data set [3] (2 mM TMA in water), the “concentration from which the scent of myrac aldehyde is perceived and masks the smell of TMA” value was not below 4%. For the same compound, the “concentration of myrac aldehyde that can neutralize the smell of TMA” value in data set [3] (2 mM TMA in water) is recorded as “about 2%”. For the same compound, the Perceived scent entry in data set [3] (Sample 1: 2 μl aldehyde in 2 ml TMA 2 mM solution, 0.1 percent aldehyde) was “Strong fishy”; in data set [3] (Sample 2: 10 μl aldehyde in 2 ml TMA 2 mM solution, 0.5 percent aldehyde) it was “fishy”; in data set [3] (Sample 3: 20 μl aldehyde in 2 ml TMA 2 mM solution, 1 percent aldehyde) it was “Faint fishy”; in data set [3] (Sample 4: 40 μl aldehyde in 2 ml TMA 2 mM solution, 2 percent aldehyde), “No scent”; in data set [3] (Sample 5: 80 μl aldehyde in 2 ml TMA 2 mM solution, 4 percent aldehyde), “Faint myrac”; in data set [3] (Sample 6: 100 μl aldehyde in 2 ml TMA 2 mM solution, 5 percent aldehyde), “Myrac”. Also, the Perceived scent entry in data set [3] (Sample 7: 200 μl aldehyde in 2 ml TMA 2 mM solution, 10 percent aldehyde) is listed as “Myrac”; in data set [3] (Sample 8: 300 μl aldehyde in 2 ml TMA 2 mM solution, 15 percent aldehyde), “Strong Myrac”; in data set [3] (Sample 9: 400 μl aldehyde in 2 ml TMA 2 mM solution, 20 percent aldehyde), “Strong myrac”.
